Reference: patent US5204352A, “Compounds exhibiting anti-parasitic activity and a method for their use” (The United States of America as represented by the …, priority 1987, dated 1993)

Tested on: Trypanosoma rhodesiense
Test: In vivo trypanocidal activity in infected mice (protocol based on Rane et al.)
Parameters: Activity at dosage, value in parentheses (increase in survival): unit not given here
Settings: for Activity at dosage (C = Cures) / Activity at dosage, value in parentheses (increase in survival): peritoneal (Table 2)
Protocol: The compounds of the present invention were evaluated biologically in vivo with groups of 5 mice at various dose levels. Unless otherwise indicated, the data are for subcutaneous administration. Dose levels marked with an asterisk are for peritoneal administration in a HEC+T medium. In addition, Table 2 present results of peritoneal administration with substituted quanylhydrazones. The biological evaluation was done according to a standard protocol based on the method described by Rane et al., Amer. J. Trop. Med Hyg. 25:395 (1976). […]

[1] = 424* mg/kg, peritoneal in HEC+T medium (Table I)
[2] = 106* mg/kg, peritoneal in HEC+T medium (Table I)
[3] = 212* mg/kg, peritoneal in HEC+T medium (Table I)
[4] = 6.6* mg/kg, peritoneal in HEC+T medium (Table I)

C=CC[n+]1c(-c2ccc(NC(C)=O)cc2)cn2cc(C)ccc21 [BK02557]
Increase in survival [1]: 3.8 days
Trypanocidal activity, cures [1]: 2/10

C=CC[n+]1c(-c2ccc(N(CC)C(C)=O)cc2)cn2ccccc21 [BK02566]
Increase in survival [2]: 2.8 days
Trypanocidal activity, cures [2]: 1/10
Increase in survival [3]: 4.7 days
Trypanocidal activity, cures [3]: 1/5
Increase in survival [1]: 9.9 days
Trypanocidal activity, cures [1]: 5/10

C[n+]1c(-c2ccc(C(N)=S)cc2)cn2ccccc21 [BK11743]
Increase in survival (6.65 mg/kg, subcutaneous): 2.7 days
Trypanocidal activity, cures (6.65 mg/kg, subcutaneous): 2/10
Increase in survival (13.3 mg/kg, subcutaneous): 3.3 days
Trypanocidal activity, cures (13.3 mg/kg, subcutaneous): 1/10
Increase in survival (26 mg/kg, subcutaneous): 4.0 days
Trypanocidal activity, cures (26 mg/kg, subcutaneous): 3/15
Trypanocidal activity, cures (53 mg/kg, subcutaneous): 5/5
Increase in survival (106 mg/kg, subcutaneous): 3.2 days
Trypanocidal activity, cures (106 mg/kg, subcutaneous): 5/10
Increase in survival (212 mg/kg, subcutaneous): 17.0 days
Trypanocidal activity, cures (212 mg/kg, subcutaneous): 4/5

C=CC[n+]1c(-c2ccc(C=NNC(=N)N)cc2)cn2ccccc21 [BK11770]
Trypanocidal activity, cures (13.3 mg/kg, subcutaneous): 5/5

C[n+]1c(-c2ccc(C=NNC(=N)N)cc2)cn2cc(Cl)ccc21 [BK13069]
Trypanocidal activity, cures (6.65 mg/kg, subcutaneous): 5/5

Cc1ccc2n(c1)cc(-c1ccc(C=NNC(=N)N)cc1)[n+]2C [BK13078]
Increase in survival (0.21 mg/kg, subcutaneous): 5.3 days
Trypanocidal activity, cures (0.21 mg/kg, subcutaneous): 2/5
Increase in survival (0.42 mg/kg, subcutaneous): 7.0 days
Trypanocidal activity, cures (0.42 mg/kg, subcutaneous): 4/5
Activity at dosage (C = Cures) (0.8 mg/kg): INAC
Trypanocidal activity, cures (0.83 mg/kg, subcutaneous): 10/10
Increase in survival (1.66 mg/kg, subcutaneous): 11.0 days
Trypanocidal activity, cures (1.66 mg/kg, subcutaneous): 9/10
Activity at dosage (C = Cures) (1.7 mg/kg): INAC
Activity at dosage, value in parentheses (increase in survival) (3.3 mg/kg): 1.0
Increase in survival (3.3 mg/kg, subcutaneous): 1.0 days
Trypanocidal activity, cures (3.33 mg/kg, subcutaneous): 5/5
Trypanocidal activity, cures (6.65 mg/kg, subcutaneous): 5/5
Activity at dosage, value in parentheses (increase in survival) (6.7 mg/kg): 7.0
Trypanocidal activity, cures (13.3 mg/kg, subcutaneous): 10/10
Activity at dosage, value in parentheses (increase in survival) (26 mg/kg): 10.6
Trypanocidal activity, cures (26.5 mg/kg, subcutaneous): 15/15
Activity at dosage, value in parentheses (increase in survival) (424 mg/kg): 12.5
Increase in survival [4]: 7.0 days
Trypanocidal activity, cures [4]: 3/5
Trypanocidal activity, cures (13* mg/kg, peritoneal in HEC+T medium (Table I)): 10/10
Trypanocidal activity, cures (26* mg/kg, peritoneal in HEC+T medium (Table I)): 13/15
Trypanocidal activity, cures (53* mg/kg, peritoneal in HEC+T medium (Table I)): 10/10
Trypanocidal activity, cures [2]: 10/10
Trypanocidal activity, cures [3]: 5/5

Cc1ccc2n(c1)cc(-c1ccc(C(N)=NO)cc1)[n+]2C [BK13087]
Increase in survival (53 mg/kg, subcutaneous): 2.3 days
Trypanocidal activity, cures (53 mg/kg, subcutaneous): 2/5

C[n+]1c(-c2ccc(C(=N)N)cc2)cn2ccccc21 [BK16471]
Increase in survival (13.3 mg/kg, subcutaneous): 3.2 days
Trypanocidal activity, cures (13.3 mg/kg, subcutaneous): 2/10
Trypanocidal activity, cures (26.5 mg/kg, subcutaneous): 10/10
Trypanocidal activity, cures (53 mg/kg, subcutaneous): 5/5

C[n+]1c(-c2ccc(C(N)=NO)cc2)cn2ccsc21 [BK16499]
Increase in survival (26 mg/kg, subcutaneous): 2.7 days
Trypanocidal activity, cures (26 mg/kg, subcutaneous): 2/10
Increase in survival (53 mg/kg, subcutaneous): 4.7 days
Trypanocidal activity, cures (53 mg/kg, subcutaneous): 2/10

C[n+]1c(-c2ccc(C(=N)N)cc2)cn2ccsc21 [BK21874]
Increase in survival (26.5 mg/kg, subcutaneous): 3.6 days
Trypanocidal activity, cures (26.5 mg/kg, subcutaneous): 1/10
Increase in survival (53 mg/kg, subcutaneous): 2.5 days
Trypanocidal activity, cures (53 mg/kg, subcutaneous): 2/5
Increase in survival (106 mg/kg, subcutaneous): 12.9 days
Trypanocidal activity, cures (106 mg/kg, subcutaneous): 9/10
Trypanocidal activity, cures (212 mg/kg, subcutaneous): 5/5

C[n+]1c(-c2ccc(C=NNC(=N)N)cc2)cn2ccsc21 [BK21909]
Trypanocidal activity, cures (13.3 mg/kg, subcutaneous): 5/5

C[n+]1c(-c2ccc(C=NNC(N)=O)cc2)cn2ccsc21 [BK21918]
Increase in survival (26.5 mg/kg, subcutaneous): 4.8 days
Increase in survival (53 mg/kg, subcutaneous): 4.5 days

CCN(CC)CCNC(=N)c1ccc(-c2cn3ccccc3[n+]2C)cc1 [BK23001]
Increase in survival (13.3 mg/kg, subcutaneous): 6.6 days

Cn1cc(-c2ccc(C=NNC(N)=O)cc2)[n+](C)c1 [BK23994]
Increase in survival (424 mg/kg, subcutaneous): 5.8 days

C=CC[n+]1c(-c2ccc(C=NNc3ncn[nH]3)cc2)cn2ccccc21 [BK24017]
Increase in survival (26 mg/kg, subcutaneous): 2.3 days
Trypanocidal activity, cures (26 mg/kg, subcutaneous): 4/10
Increase in survival (53 mg/kg, subcutaneous): 4.6 days

C[n+]1c(-c2ccc(-c3n[nH]c(N)n3)cc2)cn2ccsc21 [BK42720]
Trypanocidal activity, cures (26.5 mg/kg, subcutaneous): 5/5
